Measured values reported in US9776990B2, “Isoindolone derivatives” (AbbVie Inc., priority 2012, dated 2017).
Marks after values point to notes of the source that are not given here.

What was measured:
BRD4 (BDII_E352-M457) = BRD4 (BDII_E352-M457) (Homo sapiens (Human), UniProt O60885); test: TR-FRET bromodomain binding assay, BRD4 second bromodomain; settings: His-tagged BD2, 30 nM Alexa647 probe
How it was run: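 His-tagged BRD4 BD1 or BD2 (8 nM) with Eu-anti-His antibody (1 nM) and Alexa647-labelled BET-inhibitor probe (100 nM BDI, 30 nM BDII); 50 μM−0.85 nM compound, 2% DMSO, phosphate buffer pH 6.0, 1 h at room temperature. TR-FRET IC50 by 4-parameter fit, converted to Ki using probe Kd.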

DLD-1 = test: Proliferation panel assay, DLD-1; type: cell-based; settings: Homo sapiens, 120 h; Colon, DLD-1, 5 days; read-out: Cellular Proliferation EC50
Method: (§1) The impact of compounds of the Examples on cancer cell proliferation was determined using the breast cancer cell line MX-1 (ATCC) in a 3-day proliferation assay. MX-1 cells were maintained in RPMI supplemented with 10% FBS at 37 C.° and an atmosphere of 5% CO2. For compound testing, MX-1 cells were plated in 96-well black bottom plates at a density of 5000 cells/well in 90 μl of culture media and incubated at 37° overnight to allow cell adhesion and spreading. Compound dilution series were prepared in DMSO via a 3-fold serial dilution from 3 mM to 0.1 μM. […]
(§2) Luminescence readings from the Cell Titer Glo assay were normalized to the DMSO treated cells and analyzed using the GraphPad Prism software with sigmoidal curve fitting to obtain EC50s. The minimum significant ratio (MSR) was determined to evaluate assay reproducibility (Eastwood et al., (2006) J Biomol Screen, 11: 253-261). The overall MSR was determined to be 2.1 and a moving MSR (last six run MSR overtime) has been <2.
(§3) The compound of Example 40 was tested for its impact on proliferation of a panel of cancer cell line types (with specific cell lines tested) as set out in (Table 2). […] Cell proliferation data were analyzed as described above in the MX-1 proliferation assay to obtain the EC50 for the compounds reported in Table 2.

D54MG = test: Proliferation panel assay, D54MG; type: cell-based; settings: 120 h, Glioblastoma, 5 days, read-out: Cellular Proliferation EC50
Method: as §1, §2, §3

[1] = tested on: OPM-2 human multiple myeloma cancer xenograft; test: Xenograft tumor growth inhibition assay, OPM-2; type: in vivo, mice; settings: OPM-2 xenograft
Method: (§4) The effect of the compound of Example 40 to inhibit the growth of Ramos, OPM-2, MX-1, MV4-11, and HT1080 xenograft tumors was evaluated. Briefly, 0.5×10^6 human cancer cells (HT1080), 1×10^6 human cancer cells (Ramos), 5×10^6 human cancer cells (OPM-2, MV4-11) or 1:10 tumor brie (MX-1) (in S-MEM (MEM, Suspension, no Calcium, no Glutamine)) (Life Technologies Corporation) were inoculated subcutaneously into the right hind flank of female SCID or SCID-beige (MV4-11, HT1080) mice (Charles Rivers Labs) on study day 0. Compound was formulated in 2% EtOH, 5% Tween-80, 20% PEG-400, 73% HPMC (Ramos, OPM-2 and MX-1) or 5% DMSO, 5% EtOH, 30% PEG400, 60% Phosal 53 (MV4-11, HT1080). Administration of compound was initiated at the time of size match on day 8 (HT1080), day 17 (MX-1), or day 18 (Ramos, MV4-11, OPM-2). The tumors were measured by a pair of calipers twice a week starting at the time of size match and tumor volumes were calculated according to the formula V=L×W^2/2 (V: volume, mm^3; L: length, mm. W: width, m) Tumor volume was measured for the duration of the experiment until the mean tumor volume in each group reached an endpoint of >1000 mm^3.

[2] = tested on: HT1080 human fibrosarcoma xenograft; test: Xenograft tumor growth inhibition assay, HT1080; type: in vivo, mice; settings: BID x 14, based on day 18
Method: as §4

SMILES: Cc1[nH]c(-c2cc(NS(C)(=O)=O)ccc2Oc2ccccc2)c2c1C(=O)CCC2 [Example 40, N-[3-(3-methyl-4-oxo-4,5,6,7-tetrahydro-2H-isoindol-1-yl)-4-phenoxyphenyl]methanesulfonamide]
- Ki (BRD4 (BDII_E352-M457)): 0.043 µM
- EC50 (DLD-1): 0.45 µM
- EC50 (D54MG): 0.21 µM
- % TGI (tumor growth inhibition) ([1]; 10 mg/kg/day PO, BIDx14, based on day 31): 11%
- % TGD (tumor growth delay) ([1]; 10 mg/kg/day PO, BIDx14, endpoint 1000 mm^3): 25%
- % TGI (tumor growth inhibition) ([1]; 10 mg/kg/day PO, QDx14, based on day 31): 16%
- % TGD (tumor growth delay) ([1]; 10 mg/kg/day PO, QDx14, endpoint 1000 mm^3): 25%
- % TGI (tumor growth inhibition) ([1]; 30 mg/kg/day PO, BIDx14, based on day 31): 31* %
- % TGD (tumor growth delay) ([1]; 30 mg/kg/day PO, BIDx14, endpoint 1000 mm^3): 88* %
- % TGI (tumor growth inhibition) ([1]; 30 mg/kg/day PO, QDx14, based on day 31): 27* %
- % TGD (tumor growth delay) ([1]; 30 mg/kg/day PO, QDx14, endpoint 1000 mm^3): 63%
- % TGI (tumor growth inhibition) ([1]; 100 mg/kg/day PO, BIDx14, based on day 31): 43** %
- % TGD (tumor growth delay) ([1]; 100 mg/kg/day PO, BIDx14, endpoint 1000 mm^3): 175*** %
- % TGI (tumor growth inhibition) ([1]; 100 mg/kg/day PO, QDx14, based on day 31): 41** %
- % TGD (tumor growth delay) ([1]; 100 mg/kg/day PO, QDx14, endpoint 1000 mm^3): 88*** %
- % TGI (tumor growth inhibition) ([2]; 10 mg/kg/day PO): −1%
- % TGI (tumor growth inhibition) ([2]; 30 mg/kg/day PO): 14%
- % TGI (tumor growth inhibition) ([2]; 100 mg/kg/day PO): 52** %
